Source: US20220274997A1, “PIM KINASE INHIBITOR COMPOSITIONS AND USES THEREOF” (Snap Bio, Inc., priority 2019, published 2022)

Tests used:
[1] = test system: A673; test: CellTiter-Glo cancer cell growth inhibition, A673; type: cell-based
Source text: (§1) The CellTiter-Glo® Luminescent Cell Viability Assay is a sensitive homogeneous method to determine the number of viable cells in culture, Detection is based on using the luciferase reaction to measure the amount of ATP from viable cells. The amount of ATP in cells correlates with cell viability. Within minutes after a loss of membrane integrity, cells lose the ability to synthesize ATP, and endogenous ATPases destroy any remaining ATP; thus the levels of ATP fall precipitously. The CellTiter-Glo® Reagent does three things upon addition to cells. It lyses cell membranes to release ATP; it inhibits endogenous ATPases, and it provides luciferin, luciferase and other reagents necessary to measure ATP using a bioluminescent reaction. The unique properties of a proprietary stable luciferase.
(§2) All assays were performed by Reaction Biology Corporation (Malvern, Pa.) or ChemDiv, Inc. (San Diego, Calif.). All cell lines were purchased from American Type Culture Collection (ATCC, Manassas, Va.), except Huh 7 (RIKEN, Toyo, Japan) and HepaRG (Life Technologies, Carlsbad, Calif.).
(§3) Stock solutions ([…]) were diluted with cell culture media to produce 500× serial dilutions and […] of final compound dilutions were added to cells in assay plates to screen a series of 10 doses starting at […]. Final DMSO concentration was 0.2%. Assay plates are centrifuged at 100 rpm, 1 minute and kept at 37° C., 5% CO2, humidified atmosphere. […] Luminescence intensity was measured for each well using the Tecan M 1000 microplate reader after 5 min of incubation with CellTiter-Glo Reagent. The number of viable cells in culture was determined based on quantitation of the ATP present in each culture well. […] The EC50 curves were plotted and […] values were calculated using the GraphPad Prism 4 program based on a sigmoidal dose-response equation.

[2] = test system: HepG2; test: CellTiter-Glo cancer cell growth inhibition, HepG2; type: cell-based, human
Source text: as §1, §2, §3

[3] = test system: Huh7; test: CellTiter-Glo cancer cell growth inhibition, Huh7; type: cell-based
Source text: as §1, §2, §3

[4] = target: T1, PIM2 (Homo sapiens, UniProt Q9P1W9); test: LANCE Ultra kinase assay, PIM2; type: biochemical
T1 construct: purchased ProQinase, Freiburg, Germany 0223-0000-1
T1 sequence (Q9P1W9 whole entry): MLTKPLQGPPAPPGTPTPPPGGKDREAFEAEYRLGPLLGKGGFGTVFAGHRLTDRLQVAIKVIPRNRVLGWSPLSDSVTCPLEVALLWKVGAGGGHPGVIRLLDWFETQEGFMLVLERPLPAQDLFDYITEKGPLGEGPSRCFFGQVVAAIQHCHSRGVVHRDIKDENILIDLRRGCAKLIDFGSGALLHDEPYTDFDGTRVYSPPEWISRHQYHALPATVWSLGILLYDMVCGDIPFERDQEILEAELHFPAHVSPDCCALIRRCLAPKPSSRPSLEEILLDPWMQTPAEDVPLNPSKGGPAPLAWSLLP
Source text: (§4) The second assay used was Perkin Elmer's LANCE® Ultra kinase assay which uses a ULight™-labeled peptide substrate and an appropriate Europium-labeled anti-phospho antibody. When the substrate becomes phosphorylated by a kinase of interest, the phosphorylated site on the substrate is recognized by the Europium-labeled anti-phospho antibody. […] The intensity of light emission is proportional to the level of ULight peptide phosphorylation. A kinase inhibitor reduces the FRET signal, thus providing an accurate and sensitive measure of inhibition potency.
(§5) The assay was performed in 384-well plates in two steps: PIM kinases were mixed with the ULight-substrate (CREBtide) in buffer and incubated for 10 min. Subsequently, ATP and molecules of the present disclosure were added in a kinase buffer at the appropriate concentration and the reactions were incubated for 1 hour, at room temperature in the dark. • After 1 h EDTA was added to stop the kinase reaction, Eu-W1024-labeled anti-phosphoserine-CREB (Ser133) Antibody (anti-phosphoCREBtide specific antibody) was added to the reaction in LANCE Detection buffer. The mixture was allowed to incubate for 30 min to allow binding of the antibody to the phosphorylated site before the plate was read using a Tecan microplate reader
(§6) Kinase Assay Buffer—50 mM HEPES pH7.0.1 mM EGTA, 10 mM MgCl2, 0.01% BRU-35.
(§7) The inhibitory activity of each compound against PIM kinases was measured with the LANCE® Ultra Kinase Assays by ChemDiv, Inc. (San Diego, Calif.).

[5] = target: T2, PIM1 (Homo sapiens, UniProt P11309); test: LANCE Ultra kinase assay, PIM1; type: biochemical
T2 construct: purchased ProQinase, Freiburg, Germany 0186-0000-1
T2 sequence (P11309 whole entry): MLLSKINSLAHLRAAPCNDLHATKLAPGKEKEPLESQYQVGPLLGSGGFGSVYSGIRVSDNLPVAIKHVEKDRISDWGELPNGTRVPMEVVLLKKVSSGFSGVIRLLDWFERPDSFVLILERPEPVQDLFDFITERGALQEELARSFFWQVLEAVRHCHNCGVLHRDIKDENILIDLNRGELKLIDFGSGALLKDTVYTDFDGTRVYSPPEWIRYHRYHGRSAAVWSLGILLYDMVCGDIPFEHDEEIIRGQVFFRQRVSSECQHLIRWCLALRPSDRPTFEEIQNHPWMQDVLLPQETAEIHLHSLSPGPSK
Source text: as §4, §5, §6, §7

[6] = test system: HepaRG; test: CellTiter-Glo cancer cell growth inhibition, HepaRG; type: cell-based; conditions: Homo sapiens, 72 h
Source text: as §1, §2, §3

[7] = target: T3, PIM3 (Homo sapiens, UniProt Q86V86); test: LANCE Ultra kinase assay, PIM3; type: biochemical; conditions: for Selectivity among PIM1-3 (EC50 plots, FIGS. 2A, 2B): LANCE Ultra assay; for IC50: LANCE assay
T3 construct: purchased SignalChem, Richmond, Canada P37-10BG
Source text: as §4, §5, §6, §7

[8] = test system: Hepa1-6 mouse liver cancer cells; test: Hepa1-6 liver cancer xenograft mice; type: in vivo
Description: Hepa1-6 mouse liver cancer cells are suspended in Hank's balanced salt solution (HBSS)(2×10^7 cells/mL), and the suspension (100 μL) was subcutaneously injected into the back flank of six female CD57 immunocompetent mice. After growing for 21 days, the tumors were resected, cut into small pieces, and inserted under the skin on each back flank of twelve female CD57 mice (24 tumors total). Mice were maintained for 15 days following tumor insertion to establish robust and consistent tumor growth. The mice were randomly split into six groups of two mice each (two tumors per mouse). Alter establishment of the Hepa1-6 xenografts in CD57 mice, tumor dimensions were measured every 2 days using micrometer calipers. Four groups were treated with compound 49 (PO: 25 mg/kg and 50 mg/k; IP: 10 mg/kg and 25 mg/kg) by both oral (PO, gavage) and intraperitoneal (IP) administration once per day (q.d.) and two control groups were administered vehicle only through the same routes for 10 consecutive days. Mice are weighed daily, starting from the date of Hepa1-6 tumor insertion (day 0). At 25 days after subcutaneous inoculation with Hepa1-6 tumors, mice were euthanized via carbon dioxide asphyxiation and all tumors were excised immediately following death, weighed and measured, and then snap-frozen in liquid nitrogen. Tumor volume (TV) was calculated by the following formula: TV=0.5ab^2, where a is tumor length in mm, and b is tumor width in mm. […] Body weight of mice in all groups was maintained within 10% of day 0 baseline.

[9] = growth inhibition, 72 hours, CellTiter-Glo

IC50 ([4]; ATP 1 mM) [nM] | IC50 ([5]; ATP 1 mM) [nM] | EC50 ([1]; Homo sapiens, A673, 72 h) [nM] | EC50 ([2]; Homo sapiens, HepG2, 72 h) [nM] | EC50 [6] [nM] | IC50 ([7]; ATP 1 mM) [nM] | EC50 ([3]; Homo sapiens, Huh-7, 72 h) [nM] | SMILES | IC50 ([4]; ATP 0.1 mM) [nM] | IC50 ([5]; ATP 0.1 mM) [nM] | IC50 ([7]; ATP 0.1 mM) [nM] | further results
– | – | – | – | – | – | – | N[C@@H]1CCCN(c2c(/C=C3\SC(=O)NC3=O)cccc2-c2ccccc2)C1 [AZD-1208, reference compound] | – | – | – | EC50 [1, 9]: 19700 nM; EC50 [2, 9]: 28000 nM; EC50 [3, 9]: 13500 nM
480 | 2 | 37 | 570 | 250 | 4.9 | 240 | O=C1NC(=O)c2c1c1c3ccc(O)cc3[nH]c1c1c2c2ccc(O)cc2n1CCN1CCOCC1 [Compound 32, 2,10-dihydroxy-12-(2-morpholinoethyl)-12,13-dihydro-5H-indolo[2,3-a]pyrrolo[3,4-c]carbazole-5,7(6H)-dione] | 36 | 0.81 | 1.2 | Selectivity among PIM1-3 (EC50 plots, FIGS. 2A, 2B) [7]: PIM1 and PIM3 selectivity
180 | 0.93 | 2.2 | 54 | 16 | 5 | 77 | O=C1NC(=O)c2c1c1c3cc(F)c(O)cc3[nH]c1c1c2c2cc(F)c(O)cc2n1CCN1CCOCC1 [Compound 37, 3,9-difluoro-2,10-dihydroxy-12-(2-morpholinoethyl)-12,13-dihydro-5H-indolo[2,3-a]pyrrolo[3,4-c]carbazole-5,7(6H)-dione] | 13 | 0.7 | 1.1 | –
674 | 0.42 | 4.4 | – | – | 1.6 | 100 | O=C1NC(=O)c2c1c1c3ccncc3[nH]c1c1c2c2ccc(O)cc2n1CCN1CCOCC1 [Compound 41] | – | – | – | –
18 | 0.16 | 5 | – | – | 1.9 | 100 | O=C1NC(=O)c2c1c1c3ccc(O)cc3[nH]c1c1c2c2ccncc2n1CCN1CCOCC1 [Compound 42] | – | – | – | –
– | – | – | – | – | – | – | O=C1NC(=O)c2c1c1c3cc(F)ccc3[nH]c1c1c2c2cc(F)ccc2n1CCN1CCCCC1 [Compound 51, 3,9-difluoro-12-(2-piperidin-1-ylethyl)-12,13-dihydro-5H-indolo[2,3-a]pyrrolo[3,4-c]carbazole-5,7(6H)-dione] | > 1000 | 3 | 0.8 | –
– | – | – | – | – | – | – | C[C@@H]1CCC[C@H](C)N1CCn1c2ccc(F)cc2c2c3c(c4c5cc(F)ccc5[nH]c4c21)C(=O)NC3=O [Compound 53, 12-{2-[(2R,6S)-2,6-dimethylpiperidin-1-yl]ethyl}-3,9-difluoro-12,13-dihydro-5H-indolo[2,3-a]pyrrolo[3,4-c]carbazole-5,7(6H)-dione] | > 1000 | 3 | 2.4 | Selectivity among PIM1-3 (EC50 plots, FIGS. 2A, 2B) [7]: PIM1 and PIM3 selectivity
– | – | 30000 | 4300 | 2300 | – | 4400 | CNC(=O)c1cc(Oc2ccc(NC(=O)Nc3ccc(Cl)c(C(F)(F)F)c3)c(F)c2)ccn1 [Regorafenib, reference compound] | – | – | – | –
– | – | 18000 | 2300 | 1400 | – | 2600 | CNC(=O)c1cc(Oc2ccc(NC(=O)Nc3ccc(Cl)c(C(F)(F)F)c3)cc2)ccn1 [Sorafenib, reference compound] | – | – | – | –

SMILES | IC50 ([4]; ATP 1 mM) [nM] | IC50 ([5]; ATP 1 mM) [nM] | EC50 ([1]; Homo sapiens, A673, 72 h) [nM] | EC50 ([2]; Homo sapiens, HepG2, 72 h) [nM] | EC50 [6] [nM] | IC50 ([7]; ATP 1 mM) [nM] | EC50 ([3]; Homo sapiens, Huh-7, 72 h) [nM] | IC50 ([4]; ATP 0.1 mM) [nM] | IC50 ([5]; ATP 0.1 mM) [nM] | IC50 ([7]; ATP 0.1 mM) [nM] | further results
O=C1NC(=O)c2c1c1c3cc(F)ccc3[nH]c1c1c2c2cc(F)ccc2n1CCN1CCOCC1 [Compound 49, 3,9-difluoro-12-(2-morpholin-4-ylethyl)-12,13-dihydro-5H-indolo[2,3-a]pyrrolo[3,4-c]carbazole-5,7(6H)-dione] | – | – | 57 | 40 | > 10000 | – | 100 | > 1000 | 4 | 0.7 | Reduction of tumor size relative to control tumors ([8]; IP injection 25 mg/kg q.d., 10 days, CD57 mice): up to 50%; Tumor reduction ([8]; PO dosing (25 mg/kg and 50 mg/kg) q.d., CD57 mice): No tumor reduction was observed; Body weight change vs day 0 baseline ([8]; all groups (PO 25, 50 mg/kg; IP 10, 25 mg/kg)): ≤ 10%; Tumor reduction ([8]; lower doses (IP 10 mg/kg) q.d., CD57 mice): No tumor reduction was observed
O=C1NC(=O)c2c1c1c3ccc(O)cc3[nH]c1c1c2c2ccc(O)cc2n1CCN1CCCCC1 [Compound 56, 2,10-dihydroxy-12-(2-piperidinoethyl)-12,13-dihydro-5H-indolo[2,3-a]pyrrolo[3,4-c]carbazole-5,7(6H)-dione] | – | – | 35 | 315 | 77 | – | 484 | 50 | 0.7 | 1 | –
C[C@@H]1CCC[C@H](C)N1CCn1c2cc(O)c(F)cc2c2c3c(c4c5cc(F)c(O)cc5[nH]c4c21)C(=O)NC3=O [Compound 59, 12-{2-[(2R,6S)-2,6-dimethylpiperidin-1-yl]ethyl}-3,9-difluoro-2,10-dihydroxy-12,13-dihydro-5H-indolo[2,3-a]pyrrolo[3,4-c]carbazole-5,7(6H)-dione] | – | – | 3.1 | 266 | 20 | – | 925 | 37 | 0.1 | 3 | –
